Eleven compounds from PubChem BioAssay (NCI) can be followed below.

Molecules are shown by their SMILES. Several values for one entry are separate records, joined by “and”; a condition that tells them apart may be missing. Identical values can stand only once.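 Each compound was tested at five concentrations against cells in 96-well plates for 48 hours. Here, GI50 denotes the concentration required for 50% inhibition of growth. TGI: concentration producing complete growth inhibition.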

Some test systems named below: HOP-62 NSCLC; OVCAR-3 ovarian; MDA-MB-231 breast; UO-31 renal; ACHN renal; HL-60(TB) leukemia; SK-MEL-5 melanoma; HCC-2998 colon; LXFL 529 NSCLC; DMS 114 small cell lung.
What all share (test): NCI anticancer screen, dose series, 48 h

Consider `C/C(=C(/c1ccc(O)cc1)c1ccc(Cl)cc1)c1ccccc1`, for which the GI50 is 0.546 µM in the assay with HOP-62 NSCLC; 0.552 µM in the assay on OVCAR-3 ovarian; 0.653 µM in the assay on MDA-MB-231 breast; 0.509 µM in the assay with UO-31 renal; 0.628 µM in the assay with ACHN renal; 0.646 µM in the assay on HL-60(TB) leukemia. Further, the GI50 is 0.454 µM with SK-MEL-5 melanoma and 0.612 µM in the assay on HCC-2998 colon. Also, the TGI in the assay on HOP-62 NSCLC worked out at 1.37 µM; in the assay on OVCAR-3 ovarian, 1.31 µM; in the assay with MDA-MB-231 breast, 1.86 µM; in the assay with UO-31 renal it was 1.57 µM; in the assay on ACHN renal, 1.8 µM; in the assay with HL-60(TB) leukemia, 1.71 µM. Further, the TGI in the assay on SK-MEL-5 melanoma amounted to 0.849 µM; with HCC-2998 colon, 1.51 µM.

For the compound `COc1ccc([C@@H](O)c2cc(-c3ncnc4cc(N5CCOCC5)ccc34)c(F)cc2Cl)nn1`, the GI50 in the assay on HOP-62 NSCLC was 12.5 µM; in the assay with OVCAR-3 ovarian, 1.41 µM; in the assay on MDA-MB-231 breast it was 4.96 µM; with UO-31 renal, 0.646 µM; in the assay with ACHN renal it was 2.53 µM; in the assay on HL-60(TB) leukemia it was 0.36 µM. The results for the GI50 with SK-MEL-5 melanoma and in the assay on HCC-2998 colon were 1.99 µM and 2.85 µM, respectively. Moreover, the TGI in the assay on HOP-62 NSCLC is above 100 µM; in the assay on OVCAR-3 ovarian, 20.3 µM; in the assay with MDA-MB-231 breast, above 100 µM; with UO-31 renal, 23 µM; with ACHN renal, 91 µM; in the assay on HL-60(TB) leukemia it was 17.7 µM. In addition, the TGI came out at 8.1 µM in the assay with SK-MEL-5 melanoma and 18.7 µM in the assay with HCC-2998 colon.

Turning to `COc1cc2c(c(OC)c1OC)-c1ccc(O)c(=O)cc1[C@@H](NC(C)=O)CC2`, the GI50 in the assay on HOP-62 NSCLC was 10.7 µM; in the assay on OVCAR-3 ovarian, 4.35 µM; with MDA-MB-231 breast it was 4.7 µM; in the assay with UO-31 renal, 4.42 µM; in the assay with ACHN renal, 5.61 µM; with HL-60(TB) leukemia, 3.31 µM. In the assay with HCC-2998 colon, the GI50 was 7.95 µM. In addition, the TGI is > 100 µM and 65.9 µM in the assay on HOP-62 NSCLC; above 100 µM in the assay on OVCAR-3 ovarian; > 100 µM and 41.7 µM in the assay on MDA-MB-231 breast; 63.8 µM and 89 µM with UO-31 renal; > 100 µM and 44.5 µM in the assay with ACHN renal; 15.6 µM and 32.7 µM in the assay on HL-60(TB) leukemia. Further, the TGI was 32.2 µM and 20.5 µM in the assay with SK-MEL-5 melanoma; > 100 µM and 34.4 µM in the assay with HCC-2998 colon.

With `CC1=NOC(=O)C1N=Nc1ccc(Br)c(C)c1` (centres undefined), the TGI was 48.4 µM in the assay on HOP-62 NSCLC; 33.6 µM with OVCAR-3 ovarian; 32 µM with ACHN renal; 23.8 µM with HL-60(TB) leukemia; 25.4 µM in the assay on SK-MEL-5 melanoma; 29.1 µM with LXFL 529 NSCLC. In addition, the results for the TGI in the assay on HCC-2998 colon and in the assay with DMS 114 small cell lung were 60.6 µM and 29.3 µM, respectively.

On to `N#Cc1c(C[n+]2ccccc2)c2ccccc2oc1=O`, for which the TGI in the assay on HOP-62 NSCLC, in the assay with OVCAR-3 ovarian, in the assay with UO-31 renal, in the assay on ACHN renal, in the assay on SK-MEL-5 melanoma and in the assay with LXFL 529 NSCLC was above 100 µM throughout. The TGI in the assay on HCC-2998 colon and in the assay on DMS 114 small cell lung was above 100 µM in each case.

For `COc1cc2ncnc3c2cc1OCCCCCN(C)Cc1ccc(Br)cc1N3`, the GI50 in the assay on HOP-62 NSCLC is 21.7 µM and 8.36 µM; with OVCAR-3 ovarian, 2.48 µM and 1.76 µM; in the assay with MDA-MB-231 breast it was 10.6 µM and 7.51 µM; in the assay with UO-31 renal it was 0.285 µM and 0.267 µM; with ACHN renal it was 0.0871 µM and 0.262 µM; in the assay with HL-60(TB) leukemia, 2.94 µM and 3.68 µM. Also, the GI50 with SK-MEL-5 melanoma is 24 µM; in the assay on HCC-2998 colon, 17.7 µM and > 10 µM. The TGI is above 100 µM in the assay on HOP-62 NSCLC; above 100 µM in the assay on OVCAR-3 ovarian; 50.9 µM and > 10 µM in the assay with MDA-MB-231 breast; above 100 µM in the assay on UO-31 renal; 37.5 µM and > 10 µM in the assay on ACHN renal; above 100 µM in the assay on HL-60(TB) leukemia. Further, the TGI with SK-MEL-5 melanoma and in the assay with HCC-2998 colon was above 100 µM each time.

With `CCOC(=O)c1c(-c2ccccc2)c(C(OC(c2ccccc2)c2c(-c3ccccc3)c(C(=O)OCC)n3ccccc23)c2ccccc2)c2ccccn12` (centres undefined), the TGI in the assay on HOP-62 NSCLC, in the assay with OVCAR-3 ovarian, in the assay on UO-31 renal, in the assay with ACHN renal, in the assay with HL-60(TB) leukemia and with LXFL 529 NSCLC was above 100 µM each time. Further, the TGI in the assay on HCC-2998 colon was above 100 µM.

Turning to `Cc1ccc2sc3ccc(N)cc3c(=O)c2c1`, the TGI in the assay with HOP-62 NSCLC, in the assay with OVCAR-3 ovarian, with MDA-MB-231 breast, in the assay on UO-31 renal, in the assay with ACHN renal and in the assay with HL-60(TB) leukemia was above 100 µM in each case. In addition, the TGI with SK-MEL-5 melanoma and in the assay with HCC-2998 colon was above 100 µM throughout.

Take `S=P(N1CCCC1)(N1CC1)N1CC1`: the TGI with HOP-62 NSCLC, in the assay with OVCAR-3 ovarian, with UO-31 renal, in the assay with ACHN renal, with HL-60(TB) leukemia and in the assay on SK-MEL-5 melanoma was above 100 µM each time. Besides, the TGI in the assay with HCC-2998 colon and in the assay on DMS 114 small cell lung was above 100 µM each time.

Turning to `Cc1cnc(Nc2ccc(OCCN3CCCC3)cc2)nc1Nc1cccc(S(=O)(=O)NC(C)(C)C)c1`, the GI50 was 0.305 µM and 0.848 µM in the assay with HOP-62 NSCLC; 0.464 µM and 1.36 µM in the assay on OVCAR-3 ovarian; 0.214 µM and 1.33 µM with MDA-MB-231 breast; 0.221 µM and 0.656 µM with UO-31 renal; 0.0927 µM and 0.733 µM in the assay on ACHN renal; 0.516 µM in the assay on HL-60(TB) leukemia. Also, the GI50 in the assay with SK-MEL-5 melanoma was 1.73 µM and 2.1 µM; in the assay on HCC-2998 colon it was 0.409 µM and 1.43 µM. Further, the TGI in the assay on HOP-62 NSCLC is 9.5 µM and > 8.68 µM; with OVCAR-3 ovarian, 14.7 µM and > 10 µM; with MDA-MB-231 breast, 11.7 µM and > 10 µM; with UO-31 renal it was 1.99 µM and 2.44 µM; with ACHN renal it was 1.89 µM and 3.49 µM; with HL-60(TB) leukemia, 0.6 µM and 2.16 µM. Also, the TGI with SK-MEL-5 melanoma is 5.38 µM and > 5.38 µM; in the assay with HCC-2998 colon, 4.43 µM and > 7.01 µM.

Turning to `CSc1nsc(S/C=C\C(=O)c2ccc(C)cc2)n1`, the GI50 is 21 µM in the assay with HOP-62 NSCLC; 17 µM in the assay on OVCAR-3 ovarian; 11.3 µM with MDA-MB-231 breast; 15.1 µM in the assay on UO-31 renal; 17.6 µM in the assay with ACHN renal; 11.6 µM with HL-60(TB) leukemia. Moreover, the values for the GI50 in the assay with SK-MEL-5 melanoma and in the assay on HCC-2998 colon were 0.706 µM and 17.8 µM, respectively. Moreover, the TGI with HOP-62 NSCLC was 43.8 µM; with OVCAR-3 ovarian it was 34.5 µM; with MDA-MB-231 breast, 27.5 µM; with UO-31 renal, above 62.8 µM; in the assay on ACHN renal it was 31.8 µM; in the assay with HL-60(TB) leukemia, above 68.9 µM. Moreover, the TGI came out at 6.88 µM with SK-MEL-5 melanoma and 33.8 µM in the assay on HCC-2998 colon.
